Results published in PubChem BioAssay AID256 (DTP/NCI, 2004).
Several values for one entry are separate records, joined by “and”; a condition that tells them apart may be missing. Equal entries are not always repeated. Toxic doses and inconclusive results are not listed.

Tested on: CD2F1 mice, L1210 leukemia ip, survival T/C
Experiment: NCI In Vivo Anticancer Drug Screen. Data for tumor model L1210 Leukemia (intraperitoneal) in CD2F1 (CDF1) mice
Settings: higher = longer survival
Method in brief: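 Each value reflects a quotient of treated over vehicle control outcomes in mice with a transplanted tumor.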

[1] = endpoint: mean survival time, dose: 100.0 mg/kg/injection, schedule: Q01DX001 (ip), vehicle: saline with Tween-80
[2] = endpoint: mean survival time, dose: 100.0 mg/kg/injection, schedule: Q04DX002 (ip), vehicle: saline with Tween-80
[3] = endpoint: mean survival time, dose: 200.0 mg/kg/injection, schedule: Q01DX001 (ip), vehicle: saline with Tween-80
[4] = endpoint: mean survival time, dose: 200.0 mg/kg/injection, schedule: Q04DX002 (ip), vehicle: saline with Tween-80
[5] = endpoint: mean survival time, dose: 400.0 mg/kg/injection, schedule: Q01DX001 (ip), vehicle: saline with Tween-80
[6] = endpoint: mean survival time, dose: 400.0 mg/kg/injection, schedule: Q04DX002 (ip), vehicle: saline with Tween-80
[7] = endpoint: mean survival time, dose: 100.0 mg/kg/injection, schedule: Q04DX003 (ip), vehicle: saline with Tween-80
[8] = endpoint: mean survival time, dose: 200.0 mg/kg/injection, schedule: Q04DX003 (ip), vehicle: saline with Tween-80
[9] = endpoint: mean survival time, dose: 400.0 mg/kg/injection, schedule: Q04DX003 (ip), vehicle: saline with Tween-80
[10] = endpoint: mean survival time, dose: 100.0 mg/kg/injection, schedule: Q01DX009 (ip), vehicle: saline
[11] = endpoint: mean survival time, dose: 100.0 mg/kg/injection, schedule: Q04DX003 (ip), vehicle: saline
[12] = endpoint: mean survival time, dose: 200.0 mg/kg/injection, schedule: Q01DX009 (ip), vehicle: saline
[13] = endpoint: mean survival time, dose: 200.0 mg/kg/injection, schedule: Q04DX003 (ip), vehicle: saline
[14] = endpoint: mean survival time, dose: 50.0 mg/kg/injection, schedule: Q01DX009 (ip), vehicle: saline with Tween-80
[15] = endpoint: mean survival time, dose: 100.0 mg/kg/injection, schedule: Q01DX009 (ip), vehicle: saline with Tween-80
[16] = endpoint: mean survival time, dose: 100.0 mg/kg/injection, schedule: Q01DX009 (ip), vehicle: Klucel (hydroxypropylcellulose) (HPC)
[17] = endpoint: mean survival time, dose: 200.0 mg/kg/injection, schedule: Q01DX009 (ip), vehicle: saline with Tween-80

`O=[N+]([O-])c1ccc(C2Nc3cc(Cl)c(Cl)cc3S(=O)(=O)N2O)cc1` (stereo unspecified) was tested, and the T/C [1] was 97 % of control, the T/C [2] was 107 % of control and the T/C [3] was 96 % of control. The T/C [4] was 107 % of control, the T/C [5] was 96 % of control and the T/C [6] was 103 % of control.
In the case of `CCOC(=O)C(C(=O)OCC)C1CCC2(C)CCC(=O)C=C2C1` (stereo unspecified), the T/C [2] is reported as 100 % of control and 107 % of control and 108 % of control, the T/C [4] is reported as 100 % of control and 101 % of control and 104 % of control and the T/C [6] is reported as 98 % of control and 100 % of control. For the same compound, the T/C (endpoint: mean survival time, dose: 600.0 mg/kg/injection, schedule: Q04DX002 (ip), vehicle: saline with Tween-80) was 109 % of control.
With `O=C1Nc2ccc([N+](=O)[O-])c3c(C(=O)O)ccc1c23` the T/C [7] was 98 % of control, the T/C [8] was 104 % of control and the T/C [9] was 101 % of control.
With `CN(C)CCCNCCCCNCCCN(C)C` the T/C [10] was 102 % of control, the T/C [11] was 96 % of control and the T/C [12] was 102 % of control. For the same compound, the T/C [13] was 101 % of control and the T/C (endpoint: mean survival time, dose: 400.0 mg/kg/injection, schedule: Q04DX003 (ip), vehicle: saline) was 106 % of control.
`CSc1ncnc2c(C3OC(COC(C)=O)C(OC(C)=O)C3OC(C)=O)[nH]nc12` (stereo unspecified) was tested, and the T/C (endpoint: median survival time, dose: 8.0 mg/kg/injection, schedule: Q01DX005 (ip), vehicle: distilled water + Tween-80) was 94 % of control, the T/C (endpoint: median survival time, dose: 16.0 mg/kg/injection, schedule: Q01DX005 (ip), vehicle: distilled water + Tween-80) was 103 % of control and the T/C (endpoint: median survival time, dose: 32.0 mg/kg/injection, schedule: Q01DX005 (ip), vehicle: distilled water + Tween-80) was 96 % of control. For the same compound, the T/C (endpoint: median survival time, dose: 64.0 mg/kg/injection, schedule: Q01DX005 (ip), vehicle: distilled water + Tween-80) was 103 % of control and the T/C (endpoint: median survival time, dose: 128.0 mg/kg/injection, schedule: Q01DX005 (ip), vehicle: distilled water + Tween-80) was 106 % of control.
For `CC(=O)N(C)N=Nc1ccc(F)cc1`, the T/C (endpoint: mean survival time, dose: 25.0 mg/kg/injection, schedule: Q04DX003 (ip), vehicle: Klucel (hydroxypropylcellulose) (HPC)) was 105 % of control, the T/C (endpoint: mean survival time, dose: 50.0 mg/kg/injection, schedule: Q04DX003 (ip), vehicle: Klucel (hydroxypropylcellulose) (HPC)) was 102 % of control and the T/C (endpoint: mean survival time, dose: 100.0 mg/kg/injection, schedule: Q04DX003 (ip), vehicle: Klucel (hydroxypropylcellulose) (HPC)) was 105 % of control. The T/C (endpoint: mean survival time, dose: 200.0 mg/kg/injection, schedule: Q04DX003 (ip), vehicle: Klucel (hydroxypropylcellulose) (HPC)) was 105 % of control.
For `Cc1ccc(S(=O)(=O)N2CCCCC2)cc1`, the T/C (endpoint: mean survival time, dose: 50.0 mg/kg/injection, schedule: Q01DX009 (ip), vehicle: saline) was 91 % of control, the T/C [10] was 93 % of control and the T/C [12] was 93 % of control.
In the case of `[C-]#[O+].[C-]#[O+].[C-]#[O+].[C-]#[O+].[C-]#[O+].[C-]#[O+].[Cr]`, the T/C (endpoint: mean survival time, dose: 25.0 mg/kg/injection, schedule: Q01DX009 (ip), vehicle: saline with Tween-80) is reported as 103 % of control, the T/C [14] is reported as 97 % of control and 110 % of control and the T/C [15] is reported as 112 % of control.
In the case of `C[C@]12CC[C@@H]3c4ccc(O)cc4CC[C@H]3[C@@H]1CC[C@@H]2O`, the T/C (endpoint: mean survival time, dose: 6.25 mg/kg/injection, schedule: Q01DX009 (ip), vehicle: Klucel (hydroxypropylcellulose) (HPC)) is reported as 94 % of control, the T/C (endpoint: mean survival time, dose: 12.5 mg/kg/injection, schedule: Q01DX009 (ip), vehicle: Klucel (hydroxypropylcellulose) (HPC)) is reported as 100 % of control and the T/C (endpoint: mean survival time, dose: 25.0 mg/kg/injection, schedule: Q01DX009 (ip), vehicle: Klucel (hydroxypropylcellulose) (HPC)) is reported as 97 % of control. The T/C (endpoint: mean survival time, dose: 50.0 mg/kg/injection, schedule: Q01DX009 (ip), vehicle: Klucel (hydroxypropylcellulose) (HPC)) was 96 % of control, the T/C [16] was 105 % of control and the T/C (endpoint: mean survival time, dose: 200.0 mg/kg/injection, schedule: Q01DX009 (ip), vehicle: Klucel (hydroxypropylcellulose) (HPC)) was 96 % of control.
`O=C(NCc1ccccc1)C(Cc1ccccc1)(Cc1ccccc1)C(=O)NCc1ccccc1` was tested, and the T/C [14] was 102 % of control, the T/C [15] was 97 % of control and the T/C [17] was 93 % of control.
With `CCOC(CSCC#N)OCC` the T/C (endpoint: mean survival time, dose: 12.5 mg/kg/injection, schedule: Q01DX009 (ip), vehicle: saline sonified) was 102 % of control, the T/C (endpoint: mean survival time, dose: 12.5 mg/kg/injection, schedule: Q04DX003 (ip), vehicle: saline sonified) was 98 % of control and the T/C (endpoint: mean survival time, dose: 25.0 mg/kg/injection, schedule: Q01DX009 (ip), vehicle: saline sonified) was 104 % of control. The T/C (endpoint: mean survival time, dose: 25.0 mg/kg/injection, schedule: Q04DX003 (ip), vehicle: saline sonified) was 98 % of control, the T/C (endpoint: mean survival time, dose: 50.0 mg/kg/injection, schedule: Q01DX009 (ip), vehicle: saline sonified) was 102 % of control and the T/C (endpoint: mean survival time, dose: 50.0 mg/kg/injection, schedule: Q04DX003 (ip), vehicle: saline sonified) was 98 % of control.
For `Cc1ccc(/C=C2\CC(C)(C)c3ccccc3C2=O)cc1`, the T/C [10] was 96 % of control, the T/C (endpoint: mean survival time, dose: 100.0 mg/kg/injection, schedule: Q04DX003 (ip), vehicle: other) was 104 % of control and the T/C [12] was 94 % of control. For the same compound, the T/C (endpoint: mean survival time, dose: 200.0 mg/kg/injection, schedule: Q04DX003 (ip), vehicle: other) was 100 % of control, the T/C (endpoint: mean survival time, dose: 400.0 mg/kg/injection, schedule: Q01DX009 (ip), vehicle: saline) was 94 % of control and the T/C (endpoint: mean survival time, dose: 400.0 mg/kg/injection, schedule: Q04DX003 (ip), vehicle: other) was 105 % of control.
`C[S+](C)CCC1NC(=O)NC1=O` (stereo unspecified) was tested, and the T/C [7] was 107 % of control, the T/C [11] was 98 % of control and the T/C [8] was 102 % of control. The T/C [13] was 102 % of control and the T/C [9] was 93 % of control.
With `CN(C)N=Nc1ccccc1C(N)=O` the T/C (endpoint: mean survival time, dose: 18.8 mg/kg/injection, schedule: Q01DX009 (ip), vehicle: Klucel (hydroxypropylcellulose) (HPC)) was 106 % of control, the T/C (endpoint: mean survival time, dose: 37.5 mg/kg/injection, schedule: Q01DX009 (ip), vehicle: Klucel (hydroxypropylcellulose) (HPC)) was 117 % of control and 106 % of control and the T/C (endpoint: mean survival time, dose: 75.0 mg/kg/injection, schedule: Q01DX009 (ip), vehicle: Klucel (hydroxypropylcellulose) (HPC)) was 116 % of control and 123 % of control. For the same compound, the T/C [16] was 151 % of control and the T/C (endpoint: mean survival time, dose: 150.0 mg/kg/injection, schedule: Q01DX009 (ip), vehicle: Klucel (hydroxypropylcellulose) (HPC)) was 123 % of control and 86 % of control and 101 % of control.
`O=C(O/N=C(/CBr)c1ccccc1)c1ccccc1` was tested, and the T/C (endpoint: mean survival time, dose: 75.0 mg/kg/injection, schedule: Q01DX001 (ip), vehicle: other) was 101 % of control, the T/C (endpoint: mean survival time, dose: 150.0 mg/kg/injection, schedule: Q01DX001 (ip), vehicle: other) was 97 % of control and the T/C (endpoint: mean survival time, dose: 300.0 mg/kg/injection, schedule: Q01DX001 (ip), vehicle: other) was 103 % of control.
In the case of `CCCC[CH2][Pb]([CH2]CCCC)([CH2]CCCC)[O]C(C)=O`, the T/C (endpoint: mean survival time, dose: 0.25 mg/kg/injection, schedule: Q01DX009 (ip), vehicle: saline with Tween-80) is reported as 96 % of control, the T/C (endpoint: mean survival time, dose: 0.5 mg/kg/injection, schedule: Q01DX009 (ip), vehicle: saline with Tween-80) is reported as 93 % of control and the T/C (endpoint: mean survival time, dose: 1.0 mg/kg/injection, schedule: Q01DX009 (ip), vehicle: saline with Tween-80) is reported as 90 % of control. For the same compound, the T/C (endpoint: mean survival time, dose: 1.0 mg/kg/injection, schedule: Q04DX003 (ip), vehicle: saline with Tween-80) was 95 % of control.
For `CCOC(=O)C(C(C)=O)C(=O)c1ccc([N+](=O)[O-])cc1` (stereo unspecified), the T/C [15] was 102 % of control, the T/C [7] was 100 % of control and the T/C [17] was 101 % of control. For the same compound, the T/C [8] was 102 % of control, the T/C (endpoint: mean survival time, dose: 400.0 mg/kg/injection, schedule: Q01DX009 (ip), vehicle: saline with Tween-80) was 98 % of control and the T/C [9] was 100 % of control.
In the case of `Cc1cccc(/C=C2\Cc3ccccc3C2=O)c1`, the T/C [1] is reported as 103 % of control, the T/C [3] is reported as 95 % of control and the T/C [5] is reported as 103 % of control.
In the case of `CS(=O)(=O)OCCF`, the T/C (endpoint: mean survival time, dose: 1.5 mg/kg/injection, schedule: Q04DX003 (ip), vehicle: saline with Tween-80) is reported as 98 % of control, the T/C (endpoint: mean survival time, dose: 3.0 mg/kg/injection, schedule: Q04DX003 (ip), vehicle: saline with Tween-80) is reported as 98 % of control and the T/C (endpoint: mean survival time, dose: 6.0 mg/kg/injection, schedule: Q04DX003 (ip), vehicle: saline with Tween-80) is reported as 103 % of control.
In the case of `OC(COc1ccc(Cl)cc1)COc1ccc(Cl)cc1`, the T/C (endpoint: mean survival time, dose: 25.0 mg/kg/injection, schedule: Q01DX001 (ip), vehicle: saline with Tween-80) is reported as 94 % of control, the T/C (endpoint: mean survival time, dose: 50.0 mg/kg/injection, schedule: Q01DX001 (ip), vehicle: saline with Tween-80) is reported as 94 % of control and the T/C [1] is reported as 105 % of control.
